# Source: patent US9827312B2, “Method for carrying therapeutic substances into cells” (MAGFORCE AG, priority 2005, dated 2017)
# Experiments:
# [1] = test system: tumor cells (in vitro); test: Destruction of tumor cells in vitro by cefamandole alone; type: cell-based; settings: cefamandole without nanoparticles
# Text: Cefamandole (CAS No 30034-03-8) is used to combat bacterial infections. […] This substance's potential to combat cancer cells, however, is to be considered to be rather low. […] It is, however, possible to drastically increase the efficacy of cefamandole in the treatment of tumor cells by the simultaneous application of nanoparticles.
# [2] = test system: WiDr (colon carcinoma) cells; test: Efficacy of cefamandole/nanoparticle mixture in vitro, WiDr (Example 2); type: cell-based, human; settings: 72 hrs incubation, cefamandole 0.016 mg/ml in medium, 136 μl MFL AS M01
# Procedure: (§1) The experiments in vitro were carried out with the cell lines BT20 (breast carcinoma) and WiDr (colon carcinoma). The tumor cells were taken from tumor tissue of a patient and cultivated as described in DE 199 12 798 C1. 2×10^6 cells, respectively, were prepared in a 75 cm^3 cell culture bottle with 25 ml of cell culture medium (RPMI+10% FBS+1.2 ml of pyruvate for WiDr cells, or respectively BME+10% FBS+pyruvate+5 ml of non-essential amino acids+5 ml glutamine for BT20 cells) for testing the efficacy of the cefamandole/nanoparticle mixture. 136 μl of magnetic fluid MFL AS M01 (iron oxide nanoparticle coated with polycondensed N-(2-aminoethyl)-3-(trimethoxysilyl)propylamine, manufacturer: MagForce Nanotechnologies GmbH, Berlin, Germany) (cFe=2 mol/l) and 390 μl of cefamandole solution (stock solution 1 mg/ml in 0.9% NaCl) were added to said cell suspension.
# (§2) After 72 hrs, 30.5% of the BT20 cells and 24% of the WiDr cells had died. Neither cefamandole in the selected concentration, nor the nanoparticle alone, are capable of causing cell death (0% of dead cells). Only the combination of cefamandole and nanoparticles leads to said significant damage of the tumor cells which is due to the transfer of cefamandole into the cells.
# [3] = test system: BT20 (breast carcinoma) cells; test: Efficacy of cefamandole/nanoparticle mixture in vitro, BT20 (Example 2); type: cell-based, human; settings: 72 hrs incubation, cefamandole 0.016 mg/ml in medium, 136 μl MFL AS M01
# Procedure: as §1, §2
# [4] = test system: colon carcinoma cell line WiDr; test: Increase in the activity of cytostatics with nanoparticles (Table 1), WiDr; type: cell-based, human; settings: procedure of example 2
# Procedure: as §1
# (§3) Corresponding to the experiment procedure according to example 2, the following […] were tested in vitro with the active ingredients listed in table 1: a) glioblastoma human cell line RUSIRS 1; b) breast carcinoma cell lines BT20; c) colon carcinoma cell line WiDR; d) bronchial carcinoma cells NSCLC, e) rectal carcinoma cells and f) prostate carcinoma cell line DU 145.
# (§4) In all cases, an increased activity of the cytostatic could be observed. The increase in activity is indicated in parentheses after the respective cytostatic, wherein (+) means an increase of about 5% to 80% and (++) means an increase of 80% to 500%.
# [5] = test system: rectal carcinoma cells; test: Increase in the activity of cytostatics with nanoparticles (Table 1), rectal carcinoma; type: cell-based; settings: procedure of example 2
# Procedure: as §1, §3, §4
# [6] = test system: neuroglioma cell line H4; test: Increase in the activity of cytostatics with nanoparticles (Table 1), H4; type: cell-based; settings: procedure of example 2
# Procedure: as §1, §3, §4
# [7] = test system: bronchial carcinoma cells NSCLC; test: Increase in the activity of cytostatics with nanoparticles (Table 1), NSCLC; type: cell-based; settings: procedure of example 2
# Procedure: as §1, §3, §4
# [8] = test system: prostate carcinoma cell line DU 145; test: Increase in the activity of cytostatics with nanoparticles (Table 1), DU 145; type: cell-based; settings: procedure of example 2
# Procedure: as §1, §3, §4
# [9] = test system: glioblastoma human cell line RUSIRS1; test: Increase in the activity of cytostatics with nanoparticles (Table 1), RUSIRS1; type: cell-based; settings: procedure of example 2
# Procedure: as §1, §3, §4
# [10] = test system: breast carcinoma cell lines BT20; test: Increase in the activity of cytostatics with nanoparticles (Table 1), BT20; type: cell-based, human; settings: procedure of example 2
# Procedure: as §1, §3, §4
Compound,concentration in the cell culture medium needed for destruction of tumor cells [1],dead cells [2],dead cells [3],increase in the activity of cytostatics [4],increase in the activity of cytostatics [5],increase in the activity of cytostatics [6],increase in the activity of cytostatics [7],increase in the activity of cytostatics [8],increase in the activity of cytostatics [9],increase in the activity of cytostatics [10]
"Cn1nnnc1SCC1=C(C(=O)O)N2C(=O)[C@@H](NC(=O)[C@H](O)c3ccccc3)[C@H]2SC1 [cefamandole, Cefamandole]",≥ 0.5 mg/mL,0%,0%,–,–,–,–,–,–,–
CCC(C)(C)C(=O)O[C@H]1C[C@@H](C)C=C2C=C[C@H](C)[C@H](CC[C@@H]3C[C@@H](O)CC(=O)O3)[C@H]21 [simvastatin],–,–,–,(+) ((+) means an increase of about 5% to 80%),(+) ((+) means an increase of about 5% to 80%),(+) ((+) means an increase of about 5% to 80%),(++) ((++) means an increase of 80% to 500%),(+) ((+) means an increase of about 5% to 80%),(+) ((+) means an increase of about 5% to 80%),(+) ((+) means an increase of about 5% to 80%)
CN(C)[C@@H]1C(O)=C(C(N)=O)C(=O)[C@@]2(O)C(O)=C3C(=O)c4c(O)cccc4[C@@](C)(O)[C@H]3C[C@@H]12 [tetracycline],–,–,–,(+) ((+) means an increase of about 5% to 80%),(++) ((++) means an increase of 80% to 500%),(+) ((+) means an increase of about 5% to 80%),(+) ((+) means an increase of about 5% to 80%),(++) ((++) means an increase of 80% to 500%),(+) ((+) means an increase of about 5% to 80%),(+) ((+) means an increase of about 5% to 80%)
NC[C@H]1O[C@H](O[C@H]2[C@H](O)[C@@H](O[C@H]3O[C@H](CO)[C@@H](O)[C@H](N)[C@H]3O)[C@H](N)C[C@@H]2N)[C@H](N)C[C@@H]1O [tobramycin],–,–,–,(+) ((+) means an increase of about 5% to 80%),(+) ((+) means an increase of about 5% to 80%),(+) ((+) means an increase of about 5% to 80%),(+) ((+) means an increase of about 5% to 80%),(+) ((+) means an increase of about 5% to 80%),(+) ((+) means an increase of about 5% to 80%),(+) ((+) means an increase of about 5% to 80%)
CC[C@]1(O)C[C@H]2CN(CCc3c([nH]c4ccccc34)[C@@](C(=O)OC)(c3cc4c(cc3OC)N(C=O)[C@H]3[C@@](O)(C(=O)OC)[C@H](OC(C)=O)[C@]5(CC)C=CCN6CC[C@]43[C@@H]65)C2)C1 [vincristine],–,–,–,(+) ((+) means an increase of about 5% to 80%),(++) ((++) means an increase of 80% to 500%),(+) ((+) means an increase of about 5% to 80%),(++) ((++) means an increase of 80% to 500%),(+) ((+) means an increase of about 5% to 80%),(+) ((+) means an increase of about 5% to 80%),(++) ((++) means an increase of 80% to 500%)
